Experimental data as given in publication PMC10824102, “Identification of small molecule inhibitors of G3BP-driven stress granule formation” (The Journal of Cell Biology, 2024).

Tests used:
[1] = test system: stress granule formation in WT cell line with endogenous G3BP1; test: Stress granule formation in WT cell line with endogenous G3BP1 (immunofluorescence); assay type: cell-based; conditions: Figure S2H: 50 μM, 250 μM NaAsO2 for 30 min
Method: U2OS cells or U2OS cells stably expressing G3BP1-GFP were seeded in four-well Lab-Tek II Chambered Coverglass (1055360; Thermo Fisher Scientific). For preincubation experiments, cells were treated with 50 μM G3I compound for 20 min or 24 h, followed by 250 μM NaAsO2 and 50 μM G3I compound for 30 min. For posttreatment, cells were treated with 250 μM NaAsO2 for 30 min, followed by treatment with 250 μM NaAsO2 and 50 μM G3I compound for 5 min. Cells were then washed twice with PBS and fixed with 4% PFA in PBS for 10 min. Cells were then washed three times with PBS (5 min between each wash), permeabilized with 0.5% Triton X-100 in PBS for 10 min, and washed twice with PBS. Next, cells were blocked for 1 h with 3% BSA in PBS at room temperature, followed by incubation with primary antibodies diluted in 3% BSA overnight at 4°C. Cells were then washed three times with PBS (5 min between each wash) and incubated with secondary antibodies and Hoechst diluted in 3% BSA at room temperature for 1 h. Cells were then washed three times with PBS (5 min between each wash) and imaged. Primary antibodies were as follows: G3BP1 (Cat# 611127, RRID:AB_398438; BD Biosciences) at 1:200; TDP-43 (Cat# 12892-1-AP, RRID:AB_2200505; Proteintech) at 1:50; eIF3η (Cat# sc-137214, RRID:AB_2277705; Santa Cruz Biotechnology) at 1:100 dilution; PABP (Cat# ab21060, RRID:AB_777008; Abcam) at 1:1,000 dilution; and FXR1 (Cat# ab51970, RRID:AB_880113; Abcam) at 1:100 dilution. Secondary antibodies were as follows: donkey anti-mouse Alexa Fluor 647 (Cat# A-31571, RRID:AB_162542; Thermo Fisher Scientific), donkey anti-rabbit Alexa Fluor 555 (Cat# A-31572 [also A31572], RRID:AB_162543; Thermo Fisher Scientific), and donkey anti-goat Alexa Fluor 555 (Cat# A-21432 [also A21432], RRID:AB_2535853; Thermo Fisher Scientific). Nuclei were stained with Hoechst 33342 (40046; Biotium) at 1:10,000 dilution. All imaging was acquired on a Yokogawa CSU W1 spinning disk attached to a Nikon Ti2 eclipse with a Photometrics Prime 95B camera using Nikon Elements software (versions 5.20.00 to 5.21.02). Imaging was performed through a Nikon Plan Apo 60× 1.40 NA oil objective with Immersol 518 F (refractive index 1.518; Zeiss), and Perfect Focus 2.0 (Nikon) was engaged for all captures.

[2] = biological target: T1, full-length 6x-His-tagged human G3BP1 (Homo sapiens, UniProt Q13283); test: Peptide displacement assay (Pep-FRET); assay type: binding; conditions: for IC50: displacement of FAM-labeled peptide probe, 60 min, room temperature; for displacement of FAM-labeled FGDF peptide from G3BP1: result in words, Fig. 1 C
T1 construct: 10 nM full-length 6x-His-tagged human G3BP1; made in house; host or cells: E. coli BL21 (DE3)
T1 sequence (Q13283 whole entry): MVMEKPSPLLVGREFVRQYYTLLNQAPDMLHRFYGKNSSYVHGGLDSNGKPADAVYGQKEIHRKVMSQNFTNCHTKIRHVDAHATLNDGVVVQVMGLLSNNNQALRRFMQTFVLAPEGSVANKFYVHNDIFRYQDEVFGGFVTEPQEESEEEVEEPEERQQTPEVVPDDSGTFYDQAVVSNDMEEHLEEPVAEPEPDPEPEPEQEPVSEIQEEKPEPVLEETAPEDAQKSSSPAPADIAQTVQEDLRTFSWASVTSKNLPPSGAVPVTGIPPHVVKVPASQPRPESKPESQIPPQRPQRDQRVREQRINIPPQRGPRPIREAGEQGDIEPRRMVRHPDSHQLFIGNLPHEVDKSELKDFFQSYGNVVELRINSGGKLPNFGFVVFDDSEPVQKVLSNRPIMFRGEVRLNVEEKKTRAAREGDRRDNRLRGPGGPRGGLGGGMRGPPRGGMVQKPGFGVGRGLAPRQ
Method: Peptide displacement assays were performed in 20 μl total volume at 25°C at pH 7.4 in buffer containing 20 mM Tris-HCl, pH 7.5, 100 mM NaCl, 0.01% bovine serum albumin, 1 mM DTT, and 0.005% Tween-20. 10 nM full-length 6x-His-tagged human G3BP1 was added to the reaction mix containing the test compound and 0.5 nM anti-His-Tb antibody (PerkinElmer). […] Assay plates were shaken for 30 s, then centrifuged for 30 s, and then incubated at room temperature for 60 min. Data were read on an EnVision Multilabel plate reader at 495/520 nm. HTRF ratios were calculated as described by PerkinElmer and IC50s were calculated using GraphPad Prism 9 software and the [Inhibitor] versus Response—Variable Slope (four parameter) fit equation.

[3] = test system: stress granule formation in U2OS cells stably expressing G3BP1-GFP; test: Preincubation, arsenite-induced stress granule formation, live cell imaging in U2OS; assay type: cell-based; conditions: for reduction of total stress granule area / reduction of stress granule formation compared with inactive enantiomer: 20 min pretreatment; for reduction of total stress granule area / stress granule formation: 500 μM NaAsO2; for reduction of stress granule formation compared with inactive enantiomer: 250 μM NaAsO2; for stress granule formation: any tested dose (5, 20, 50 μM)
Method: For preincubation of compounds, U2OS or HeLa cells stably expressing G3BP1-GFP or CRISPR-modified cells expressing TDP-43-GFP/G3BP1-GFP were seeded into eight-well Lab-Tek chambered cover glass (Nunc). […] This solution was vortexed for 5 s, added to the cells at 250 μl per well, and left to incubate on the microscope for 20 min. Conditions were maintained at 37°C and 5% CO2 using a Bold Line Cage Incubator (Okolab) and an objective heater (Bioptechs). During this incubation time, 5 xy fields were stored per condition, with each field having ∼20–30 cells within it. After the 20-min incubation, 250 μl of 500 μM or 1 mM (2×) sodium arsenite (Sigma-Aldrich) diluted in the FluoroBrite media with an appropriate amount of G3I compound or DMSO was added to the sample. Imaging began immediately after, with images at each xy field being taken every 1 min. For heat shock experiments, U2OS G3BP1-GFP-expressing cells were seeded into a 35-mm glass bottom dish (MatTek). Prior to the experiment, 1.5 ml FluoroBrite DMEM media (Gibco) supplemented with 10% FBS and 4 mM L-glutamine was combined with 0.1% DMSO or 50 μM G3I compound. The sample was incubated on the environmentally controlled microscope for 20 min. During this incubation time, 10 xy fields were stored per condition. After the 20-min incubation, acquisition began with each xy position being imaged every 30 s. 2 min into the acquisition, the objective heater was ramped to 43°C and maintained this temperature until ramped back down to 37°C at 32 min into the acquisition. All imaging was acquired on a Yokogawa CSU W1 spinning disk attached to a Nikon Ti2 eclipse with a Photometrics Prime 95B camera using Nikon Elements software (v5.20.00 to v5.21.02). Imaging was performed through a Nikon Plan Apo 60× 1.40 NA oil objective with Immersol 518 F (refractive index 1.518; Zeiss), and Perfect Focus 2.0 (Nikon) was engaged for all captures.
Automated granule detection and measurement were performed using a combination of ilastik and CellProfiler software. Briefly, ND2 multipoint timelapse files were resaved as image sequences in Fiji with the Bio-Formats plugin so that individual frames of the movies could be treated as individual images for analysis. From there, pixel classification in ilastik was used to segment both stress granules and the total cellular area within the field using the G3BP1-GFP channel via machine learning. These segmentations, along with the original G3BP1-GFP image, were input into CellProfiler, where objects were defined using the masks from ilastik.

Compound | stress granule formation by endogenous G3BP signal [1] | IC50 [2] | displacement of FAM-labeled FGDF peptide from G3BP1 [2] | reduction of total stress granule area ([3]; 5 μM) | reduction of total stress granule area ([3]; 20 μM) | reduction of stress granule formation compared with inactive enantiomer ([3]; 50 μM) | reduction of total stress granule area ([3]; 50 μM) | stress granule formation [3]
COCCC(NC(=O)C(C)NC(=O)C(NC(=O)C(NC(=O)C(F)CC(C)(C)C)C(C)(C)O)C(C)c1ccccc1)C(=O)N(C)Cc1ccccc1 (stereo not shown) [G3Ia] | effectively blocked stress granule formation | 1.5 µM | potently displaced | ~36% | ~59% | ~86% | ~80% | –
COCCC(NC(=O)C(C)NC(=O)C(NC(=O)C(NC(=O)C(F)CC(C)(C)C)C(C)(C)O)C(C)c1ccccc1)C(=O)N(C)Cc1ccccc1 (stereo not shown) [G3Ia′] | not | > 50 µM | little effect | – | – | – | – | not significantly altered
CC(NC(=O)C(NC(=O)C(NC(=O)CCC(C)(C)C)C(C)(C)O)C(C)c1ccccc1)C(=O)N1CCCC1c1ccccc1 (stereo not shown) [G3Ib] | effectively blocked stress granule formation | 0.7 µM | potently displaced | ~50% | ~85% | ~94% | ~93% | –
CC(NC(=O)C(NC(=O)C(NC(=O)CCC(C)(C)C)C(C)(C)O)C(C)c1ccccc1)C(=O)N1CCCC1c1ccccc1 (stereo not shown) [G3Ib′] | not | > 50 µM | little effect | – | – | – | – | not significantly altered
